Series [1] has as its system isolated smooth muscle preparations (histamine). Briefly: Anti-histamine activity on isolated smooth muscle preparations. As to conditions: A at 4 × 10^-6, B at 10^-6, C at 4 × 10^-7 g/ml. From the text: (§1) Additionally, anti-histamine, anti-acetylcholine, antiserotonin and smooth muscle-relaxing activities of the compounds under test were examined on isolated smooth muscle preparations.

In a further series the test system is tremorine-induced tremor. Briefly: Anti-tremorine activity: antagonism of tremorine-induced tremor. Type of series: in vivo, male d,d-strain mice. The conditions noted are these: Mus musculus, mice. Here is the method: (§2) Male d,d-strain mice weighing 18 to 22 grs. were used for the experiments.
(§3) Groups of each 10 mice were treated orally and intraperitoneally with a wide range of doses of the above-mentioned compounds or saline.
1) Anti-tremorine activity:
Antagonistic effects on the tremorine-induced tremor were observed as follows:
Ten (10) minutes after the intraperitoneal injection of the individual compounds under test, on one hand, and 40 minutes after the oral administration of said individual compounds, on the other hand, 20 mg/kg of tremorine hydrochloride were subcutaneously injected to each group of the mice. The occurrence of tremor on the individually caged mice was visually observed 20 minutes after the tremorineinjection.

A short description of the next series: in vivo. As to conditions: mouse, po. Set-up: species or system male d,d-strain mice. Here is the method: as §2, §3
Series [2] deals with nicotine-induced convulsive death. Briefly: Anti-nicotine activity: antagonism of convulsive death caused by nicotine. In kind it is in vivo, male d,d-strain mice. The conditions noted are these: Mus musculus, mice. Here is the method: as §2, §3
(§4) 2) Anti-nicotine and anti-physostigmine activities:
(§5) Antagonistic effects against the convulsive death of the mice caused by the injections of nicotine, on one hand, and physostigmine, on the other hand, were observed as follows:
(§6) Thirty (30) minutes after the intraperitoneal injection of the individual compounds under test, on one hand, and 60 minutes after the oral administration of said individual compounds, on the other hand, 4 mg/kg of nicotine tartrate, on one hand, and 0.5 mg/kg of physostigmine sulfate, on the other hand, were intravenously injected to each group of the mice. The convulsive death, if any, of the mice in each group was then observed.

Series [3] can be described thus: Acute toxicity: mortality during 24 hours after oral administration. In kind it is in vivo. As to conditions: mouse, in vivo, mice, mortality during 24 hours. Here is the method: as §2, §3
(§7) The mortality ensued during 24 hours after the oral administration was recorded to determine acute toxicity of the compound under test on the mice.

A further series has as its system mice. Described as above. As to conditions: 24 hours. In kind it is in vivo. Here is the method:
as §2, §3, §7

Series [4] relates to isolated smooth muscle preparations (acetylcholine). The experiment in a line: Anti-acetylcholine activity on isolated smooth muscle preparations. As to conditions: A at 4 × 10^-6, B at 10^-6, C at 4 × 10^-7 g/ml.
Excerpt: as §1

Series [5] has as its system physostigmine-induced convulsive death. Briefly: Anti-physostigmine activity: antagonism of convulsive death caused by physostigmine. As to conditions: Mus musculus, 1 h; oral, mice, 60 minutes after administration; footnote 1) for control: no effect up to the dose. Type of series: in vivo, male d,d-strain mice. Here is the method: as §2, §3, §4, §5, §6
In series [6] the test system is isolated smooth muscle preparations. The experiment in a line: Smooth muscle-relaxing activity on isolated smooth muscle preparations. The conditions noted are these: for smooth muscle-relaxant activity (in words): A at 4 × 10^-6, B at 10^-6, C at 4 × 10^-7 g/ml, concentration for control not stated.
Excerpt: as §1

The mark [7] stands for this setting: 1 h, oral, 60 minutes after administration.
Setting [8] is: ip, 0.5 h, intraperitoneal, 30 minutes after injection.

The structures appear in SMILES notation. Where only a bound is given, the exact number is not on record here.

For orientation: ED50 means the dose at which the effect has come halfway, by size or by number of responders. The LD50 is the dose at which mortality reaches 50%. High values mean a less toxic substance, low ones a more toxic substance. On to `CCc1ccc(C(=O)C(C)CN2CCCCC2)cc1.Cl` (centres unmarked) [Compound A, 4'-ethyl-2-methyl-3-piperidino-propiophenone hydrochloride], for which the “anti-histamine activity (in words)” value in series [1] was “do not entirely produce”. For the same molecule, the ED50 with tremorine-induced tremor (setting [7]) was found to be 32 mg/kg; with tremorine-induced tremor (setting [8]), 23 mg/kg; in series [2] (setting [7]) it was 175 mg/kg; in [2] (setting [8]), 21 mg/kg; in series [5], 84 mg/kg. In “in vivo”, this molecule yielded a TD50 at 1 h of 640 mg/kg. The same molecule showed an LD50 at 24 h in series [3] of 800 to 1000 mg/kg. In addition, in the series with mice, the “acute toxicity compared with Compound under control (in words)” value is on record as “slighly stronger”. For the same molecule, the “anti-acetylcholine activity (in words)” value in series [4] was “do not entirely produce”. For the same molecule, in series [6], the “smooth muscle-relaxant activity (in words)” value is recorded as “strong smooth muscle-relaxant activities”.

As for `CCCc1ccc(C(=O)C(C)CN2CCCCC2)cc1.Cl` (centres unmarked) [Compound B, 4'-n-propyl-2-methyl-3-piperidino-propiophenone hydrochloride], in [1], the “anti-histamine activity (in words)” value is “do not entirely produce”. The 50% effective dose (ED50) was found to be 50 mg/kg with tremorine-induced tremor (setting [7]); 21 mg/kg with tremorine-induced tremor (setting [8]); 135 mg/kg in series [2] (setting [7]); 20 mg/kg in series [2] (setting [8]); 150 mg/kg in series [5]. This molecule also gave a TD50 at 1 h in the series “in vivo” of 800 mg/kg. This molecule also displayed a 50% lethal dose (LD50) at 24 h in series [3] of 1000 to 1500 mg/kg. In the series with mice, the “acute toxicity compared with Compound under control (in words)” value was “almost equivalent to that of Compound under control”. In addition, the “anti-acetylcholine activity (in words)” value in [4] is listed as “do not entirely produce”. Also, the “smooth muscle-relaxant activity (in words)” value in [6] is “strong smooth muscle-relaxant activities”.

As to `CC(CN1CCCCC1)C(=O)c1ccc(C(C)C)cc1.Cl` (centres unmarked) [Compound C, 4'-isopropyl-2-methyl-3-piperidino-propiophenone hydrochloride], the “anti-histamine activity (in words)” value in series [1] was “do not entirely produce”. The 50% effective dose (ED50) in the series on tremorine-induced tremor (setting [7]) amounted to 118 mg/kg; in the series with tremorine-induced tremor (setting [8]) it was 25 mg/kg; in series [2] (setting [7]) it was 37 mg/kg; in [2] (setting [8]), 10 mg/kg; in [5], 50 mg/kg. For the same molecule, the TD50 at 1 h in “in vivo” is 84 mg/kg. In [3], the LD50 at 24 h lay within 400 to 500 mg/kg. Further, the “anti-acetylcholine activity (in words)” value in series [4] is listed as “do not entirely produce”. The “smooth muscle-relaxant activity (in words)” value in series [6] is “strong smooth muscle-relaxant activities”.

Turning to `Cc1ccc(C(=O)C(C)CN2CCCCC2)cc1.Cl` (centres unmarked) [Compound for Control, 2,4'-dimethyl-3-piperidino-propiophenone hydrochloride, reference compound], the ED50 in the series on tremorine-induced tremor (setting [7]) was 210 mg/kg; in the series on tremorine-induced tremor (setting [8]), 80 mg/kg; in series [2] (setting [7]) it was 450 mg/kg; in series [2] (setting [8]), 35 mg/kg; in series [5] it was above 400 mg/kg. Further, in the series “in vivo”, the TD50 at 1 h was 800 mg/kg. Moreover, in series [3], the median lethal dose (LD50) at 24 h lay in the range of 1000 to 1500 mg/kg. Also, the “smooth muscle-relaxant activity (in words)” value in series [6] was “weak smooth muscle-relaxant activity”. The “smooth muscle-relaxant potency relative to papaverine” value in series [6] (Compound under control vs papaverine) was “about 1/3”.

Source of the values: patent US3995047A, “Propiophenone derivatives in the treatment of pathological muscular conditions” (Eisai Co., Ltd., priority 1973, dated 1976).
